SMILES strings stand for the structures.

The target in the first assay is T1, Human HIF-PHD2 (Homo sapiens, UniProt Q9GZT9).
T1 construct: FLAG-tagged full length PHD2 expressed in and purified from baculovirus-infected Sf9 cells; FLAG; made in house; host or cells: baculovirus-infected Sf9 cells
T1 sequence (Q9GZT9 whole entry): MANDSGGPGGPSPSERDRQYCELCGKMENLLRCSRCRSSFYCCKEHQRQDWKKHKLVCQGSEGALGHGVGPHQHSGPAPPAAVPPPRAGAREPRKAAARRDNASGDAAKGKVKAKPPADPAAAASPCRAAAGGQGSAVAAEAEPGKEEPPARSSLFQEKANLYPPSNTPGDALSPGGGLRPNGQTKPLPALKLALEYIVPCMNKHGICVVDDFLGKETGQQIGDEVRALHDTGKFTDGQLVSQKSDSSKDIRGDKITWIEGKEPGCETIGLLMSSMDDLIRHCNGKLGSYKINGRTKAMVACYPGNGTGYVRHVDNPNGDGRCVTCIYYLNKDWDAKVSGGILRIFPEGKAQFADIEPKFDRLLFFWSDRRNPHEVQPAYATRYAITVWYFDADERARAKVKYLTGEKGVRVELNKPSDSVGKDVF
Description: Inhibition of the hydroxylation of a HIF peptide by PHD2 (time resolved fluorescence, 384-well). It counts as biochemical. The following applies: FLAG-tagged full length PHD2; 0.2 μM 2-oxoglutarate, 0.5 μM HIF-1α peptide; 45 minutes at room temperature; read-out: Human HIF-PHD2 IC50.
Turning to `O=C(O)CNC(=O)c1c(O)c2cccc3c2n(c1=O)C(c1ccc(Cl)cc1)CO3` (stereo not drawn) [Example 157, 2-(7-Hydroxy-5-oxo-3-(4-chlorophenyl)-3,5-dihydro-2H-[1,4]oxazino[2,3,4-ij]quinoline-6-carboxamido)acetic acid], the IC50 was found to be 25 nM.

The same assay, now with this note: FLAG-tagged full length PHD2; 0.2 μM 2-oxoglutarate, 0.5 μM HIF-1α peptide; 45 minutes at room temperature; read-out: MS m/z (M + 1)+ and human HIF-PHD2 IC50.
On to `Nc1ccc(-c2ccc3c(O)c(C(=O)NCC(=O)O)c(=O)n4c3c2OCC4)cn1` [Example 156, N-{[10-(6-aminopyridin-3-yl)-7-hydroxy-5-oxo-2,3-dihydro-5H-[1,4]oxazino[2,3,4-ij]quinolin-6-yl]carbonyl}glycine], for which the IC50 was determined as 8.1 nM. As for `O=C(O)CNC(=O)c1c(O)c2cc(F)cc3c2n(c1=O)C(c1ccc(C(F)(F)F)cc1)CO3` (stereo not drawn) [Example 158, 2-(9-fluoro-7-hydroxy-5-oxo-3-(4-(trifluoromethyl)phenyl)-3,5-dihydro-2H-[1,4]oxazino[2,3,4-ij]quinoline-6-carboxamido)acetic acid], the IC50 was found to be 16 nM. Still for that read-out and setting: to `O=C(O)CNC(=O)c1c(O)c2cc(Br)cc3c2n(c1=O)C(c1ccc(C(F)(F)F)cc1)CO3` (stereo not drawn) [Example 159, 2-(9-bromo-7-hydroxy-5-oxo-3-(4-(trifluoromethyl)phenyl)-3,5-dihydro-2H-[1,4]oxazino[2,3,4-ij]quinoline-6-carboxamido)acetic acid] belongs 47 nM. In the case of `O=C(O)CNC(=O)c1c(O)c2ccc(Br)c3c2n(c1=O)C(c1ccc(C(F)(F)F)cc1)CO3` (stereo not drawn) [Example 161, 2-(10-bromo-7-hydroxy-5-oxo-3-(4-(trifluoromethyl)phenyl)-3,5-dihydro-2H-[1,4]oxazino[2,3,4-ij]quinoline-6-carboxamido)acetic acid], the IC50 stood at 16 nM. Still for that read-out and setting: to `O=C(O)CNC(=O)c1c(O)c2c(F)ccc3c2n(c1=O)C(c1ccc(C(F)(F)F)cc1)CO3` (stereo not drawn) [Example 162, 2-(8-fluoro-7-hydroxy-5-oxo-3-(4-(trifluoromethyl)phenyl)-3,5-dihydro-2H-[1,4]oxazino[2,3,4-ij]quinoline-6-carboxamido)acetic acid] belongs 15 nM. Still for that read-out and setting: to `O=C(O)CNC(=O)c1c(O)c2ccc(F)c3c2n(c1=O)C(c1ccc(C(F)(F)F)cc1)CO3` (stereo not drawn) [Example 164, 2-(10-fluoro-7-hydroxy-5-oxo-3-(4-(trifluoroMethyl)phenyl)-3,5-dihydro-2H-[1,4]oxazino[2,3,4-ij]quinoline-6-carboxamido)acetic acid] belongs 16 nM.

On to `O=C(O)CNC(=O)c1c(O)c2ccc(Cl)c3c2n(c1=O)C(c1ccc(C(F)(F)F)cc1)CO3` (stereo not drawn) [Example 165, 2-(10-chloro-7-hydroxy-5-oxo-3-(4-(trifluoromethyl)phenyl)-3,5-dihydro-2H-[1,4]oxazino[2,3,4-ij]quinoline-6-carboxamido)acetic acid], for which the IC50 amounted to 19 nM. In the case of `O=C(O)CNC(=O)c1c(O)c2cc(Cl)cc3c2n(c1=O)C(c1ccc(C(F)(F)F)cc1)CO3` (stereo not drawn) [Example 166, 2-(9-chloro-7-hydroxy-5-oxo-3-(4-(trifluoromethyl)phenyl)-3,5-dihydro-2H-[1,4]oxazino[2,3,4-ij]quinoline-6-carboxamido)acetic acid], the IC50 worked out at 16 nM.

Take `O=C(O)CNC(=O)c1c(O)c2cccc3c2n(c1=O)C(c1cccc(C(F)(F)F)c1)CO3` (stereo not drawn) [Example 167]: the IC50 was 74 nM. Still for that read-out and setting: to `O=C(O)CNC(=O)c1c(O)c2cccc3c2n(c1=O)C(c1nccs1)CO3` (stereo not drawn) [Example 168, 2-(7-hydroxy-5-oxo-3-(thiazol-2-yl)-3,5-dihydro-2H-[1,4]oxazino[2,3,4-ij]quinoline-6-carboxamido)acetic acid] belongs 19 nM; to `O=C(O)CNC(=O)c1c(O)c2c(Br)ccc3c2n(c1=O)C(c1ccc(C(F)(F)F)cc1)CO3` (stereo not drawn) [Example 169, 2-(8-bromo-7-hydroxy-5-oxo-3-(4-(trifluoromethyl)phenyl)-3,5-dihydro-2H-[1,4]oxazino[2,3,4-ij]quinoline-6-carboxamido)acetic acid], 16 nM.

Values taken from patent US9969752B2, “Inhibitors of HIF prolyl hydroxylase” (MERCK SHARP & DOHME CORP., priority 2014, dated 2018).
